A word on the half-life: it is how long it takes for the measured level to halve. Read a low half-life as rapid decline. Broadly, the Kd is the constant that tells how readily two partners part at equilibrium. As usually defined, the solubility is the dissolved amount per volume that the medium holds. Low readings indicate little dissolved substance, high ones much dissolved substance.

Here are results for 21 molecules from patent publication US20260294922A1, “Inhibitors of JUN N-Terminal Kinases (JNK1, JNK2, and/or JNK3) and Mitogen-Activated Protein Kinases (MAPK8, MAPK9, and/or MAPK10) and Methods of Using Same” (Baylor College of Medicine, priority 2023, published 2026).

Molecules are shown by their SMILES. ≈ marks a conversion by molar mass, not a printed value.

Data set [1] in a line: In vitro metabolism in human liver microsomes. The conditions noted are these: for half-life: human, microsomes. The method, then: (§1) The target product profile seeks to deliver JNK inhibitor as a once daily oral administration. To prioritize compounds for further development, in vitro metabolism of several CDD JNK inhibitors were determined to approximate the plasma half-life and the rate of metabolism of the compounds in vivo.
In general terms: Liver microsomes are vesicles of endoplasmic reticulum, rich in cytochrome P450 enzymes.

For data set [2], the target named is JNK1 (Homo sapiens, UniProt P45983). Briefly: JNK1 kinase (intrinsic ATPase, Kinase-Glo) assay. The format is biochemical. The method, then: JNK1, JNK2, and JNK3 hydrolyze ATP to ADP without any peptide substrates. This allows a very robust and fast endpoint assay where the remaining concentration of ATP is measured (BMG ClarioStar Plus plate reader) using the Kinase-Glo Assay kit from Promega (V6711). A luminescence signal is measured, which is produced by the catalytic conversion of beetle luciferin to oxyluciferin by luciferase. Potential inhibition of luciferase (i.e., false negatives) is easily detected, because assays without kinase are always included, and less ATP than is present in this control reaction could also indicate an inhibition of luciferase, which can be excluded by a counter screen with only luciferase.
JNK1, sequence (P45983 whole entry): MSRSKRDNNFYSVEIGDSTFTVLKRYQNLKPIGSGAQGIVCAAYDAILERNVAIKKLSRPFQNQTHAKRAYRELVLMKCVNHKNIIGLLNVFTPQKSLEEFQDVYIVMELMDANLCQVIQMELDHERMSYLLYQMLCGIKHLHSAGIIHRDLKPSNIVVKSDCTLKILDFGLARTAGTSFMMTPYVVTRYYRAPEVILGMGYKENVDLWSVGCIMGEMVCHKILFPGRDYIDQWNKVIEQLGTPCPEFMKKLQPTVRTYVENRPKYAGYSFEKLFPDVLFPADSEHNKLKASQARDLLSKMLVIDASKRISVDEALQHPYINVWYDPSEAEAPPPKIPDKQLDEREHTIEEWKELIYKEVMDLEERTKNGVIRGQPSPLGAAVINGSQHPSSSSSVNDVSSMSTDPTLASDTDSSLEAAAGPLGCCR
To mitigate violation of the linear initial velocity principle, which is a problem in end-point assays when doing dose-responses, the enzyme concentration was carefully optimized, in a total assay volume of 25 μL. […] The kinase reaction was done for 30 or 60 min at 30° C., and detection of leftover ATP was measured according to Promega's protocol. […] Fractional activities were obtained from normalized data. Non-linear regression (GraphPad Prism7) and a modified Morrison equation for tight binding was used to determine apparent Ki values for inhibitors, assuming no particular mode of inhibition. An orthogonal binding assay (LanthaScreen) was outsourced to ThermoFisher Scientific's SelectScreen Services to determine IC50 values.
For orientation: In Kinase-Glo more light means more ATP remaining.

The target in data set [3] is JNK3 (Homo sapiens, UniProt P53779). Briefly: JNK3 kinase (intrinsic ATPase, Kinase-Glo) assay. The data set is classed as biochemical. The conditions noted are these: for Kd: Table 3a, read-out: Kd JNK3.
JNK3, sequence (P53779 whole entry): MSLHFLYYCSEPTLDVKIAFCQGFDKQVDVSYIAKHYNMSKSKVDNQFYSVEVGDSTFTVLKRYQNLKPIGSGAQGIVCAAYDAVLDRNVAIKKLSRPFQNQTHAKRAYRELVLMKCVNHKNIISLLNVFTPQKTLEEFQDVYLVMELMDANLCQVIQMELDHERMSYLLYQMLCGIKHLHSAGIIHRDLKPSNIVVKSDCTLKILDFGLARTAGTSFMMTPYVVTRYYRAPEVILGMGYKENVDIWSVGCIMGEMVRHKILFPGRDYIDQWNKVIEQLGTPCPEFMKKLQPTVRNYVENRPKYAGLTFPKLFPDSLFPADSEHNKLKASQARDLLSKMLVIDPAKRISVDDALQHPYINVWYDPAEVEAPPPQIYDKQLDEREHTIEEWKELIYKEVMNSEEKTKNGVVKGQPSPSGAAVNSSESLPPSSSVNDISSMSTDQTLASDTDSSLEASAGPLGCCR
Data set [4] is described as follows: Solubility.
In data set [5] the target is JNK2 (Homo sapiens, UniProt P45984). Description: JNK2 kinase (intrinsic ATPase, Kinase-Glo) assay. The data set is classed as biochemical. Conditions: for Kd: Table 3a, read-out: Kd JNK2.
JNK2, sequence (P45984 whole entry): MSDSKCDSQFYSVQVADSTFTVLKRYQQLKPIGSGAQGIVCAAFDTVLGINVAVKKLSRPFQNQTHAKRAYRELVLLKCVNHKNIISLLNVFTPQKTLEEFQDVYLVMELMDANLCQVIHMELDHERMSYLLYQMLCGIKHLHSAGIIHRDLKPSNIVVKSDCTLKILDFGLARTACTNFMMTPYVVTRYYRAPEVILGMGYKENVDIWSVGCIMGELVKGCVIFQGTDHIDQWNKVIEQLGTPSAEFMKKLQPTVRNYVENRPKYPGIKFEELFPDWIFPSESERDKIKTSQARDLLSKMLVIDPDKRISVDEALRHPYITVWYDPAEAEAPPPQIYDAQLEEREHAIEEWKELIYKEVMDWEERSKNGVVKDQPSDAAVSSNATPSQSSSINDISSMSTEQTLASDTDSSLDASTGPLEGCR
Data set [6] can be described thus: In vitro metabolism in mouse liver microsomes. The conditions noted are these: for half-life: mouse, microsomes. The method, then:
as §1

`O=C(Nc1ccc(O)c(C(=O)NC2COC2)c1)c1cc2c(-c3cnc4[nH]ccc4c3)cccc2s1` [CDD-3112, N-(4-hydroxy-3-(oxetan-3-ylcarbamoyl)phenyl)-4-(1H-pyrrolo[2,3-b]pyridin-5-yl)benzo[b]thiophene-2-carboxamide]: the half-life in data set [1] stood at 1.65 h; in data set [6], 2.83 h. The Kd in data set [2] worked out at 2.84 ± 0.49 nM; in data set [3] it was 6.4 ± 0.6 nM; in data set [5], 13.5 ± 0.8 nM. In data set [4], this molecule came in with a solubility of 1.6 µM (≈ 0.775 µg/mL).
For `CN(C)C(=O)c1cc(NC(=O)c2ccc3ncc(-c4cnc5[nH]ccc5c4)n3c2)ccc1O` [CDD-3016], the half-life was determined as 4.88 h in data set [1] and 5.3 h in data set [6]. The results for the Kd in data set [2], in data set [3] and in data set [5] were 0.65 ± 0.15 nM, 1.48 ± 0.14 nM and 5.77 ± 0.8 nM, respectively. Moreover, in data set [4], the concentration in solution (solubility) came to 9.7 µM (≈ 4.27 µg/mL).
Take `CNC(=O)c1cc(NC(=O)c2cc3c(-c4cnc5[nH]ccc5c4)cccc3s2)ccc1O` [CDD-3087, N-(4-hydroxy-3-(methylcarbamoyl)phenyl)-4-(1H-pyrrolo[2,3-b]pyridin-5-yl)benzo[b]thiophene-2-carboxamide]: the values for the half-life in data set [1] and in data set [6] were 1.97 h and 1.28 h, respectively. For the same molecule, the equilibrium dissociation constant (Kd) in data set [2] came out at 1.96 ± 0.53 nM; in data set [3], 4.54 ± 0.5 nM; in data set [5], 11.4 ± 0.81 nM. For the same molecule, the solubility in data set [4] worked out at 0.4 µM (≈ 0.177 µg/mL).
Regarding `O=C(Nc1ccccc1)c1cc2c(-c3cnc4[nH]ccc4c3)cccc2s1` [CDD-2631, N-phenyl-4-(1H-pyrrolo[2,3-b]pyridin-5-yl)benzo[b]thiophene-2-carboxamide], the Kd in data set [2] turned out to be 5.9 ± 1.1 nM; in data set [3], 12.7 ± 1.2 nM; in data set [5], 27.8 ± 3.6 nM.
As to `O=C(c1cc2c(-c3cnc4[nH]ccc4c3)cccc2s1)N1CCN(c2ccccc2)C(=O)C1` [CDD-3116, 4-(4-(1H-pyrrolo[2,3-b]pyridin-5-yl)benzo[b]thiophene-2-carbonyl)-1-phenylpiperazin-2-one], the results for the half-life in data set [1] and in data set [6] were 0.8 h and 0.567 h, respectively. Also, the Kd was 54.5 ± 5.4 nM in data set [2], 114 ± 7 nM in data set [3] and 447 ± 65 nM in data set [5]. The molecule further came in with a solubility in data set [4] of 4.2 µM (≈ 1.9 µg/mL).
With `CN(C)C(=O)c1cccc(NC(=O)c2cc3c(-c4cnc5[nH]ccc5c4)cccc3s2)c1` [CDD-2632, N-(3-(dimethylcarbamoyl)phenyl)-4-(1H-pyrrolo[2,3-b]pyridin-5-yl)benzo[b]thiophene-2-carboxamide], the Kd was determined as 4.91 ± 0.9 nM in data set [2], 5.82 ± 0.92 nM in data set [3] and 3.5 ± 1.4 nM in data set [5]. This molecule came in with a solubility in data set [4] of 0.6 µM (≈ 0.264 µg/mL).
For the molecule `Cc1sc2c(c1C)C(c1ccc(Cl)cc1)=N[C@@H](CC(=O)OC(C)(C)C)c1nnc(C)n1-2` [JQ1, reference compound], in data set [1], the “Predicted half-life, HLM t1/2” value is 0.275 h. Moreover, in data set [6], the “Predicted half-life, MLM t1/2” value was 0.193 h.
Turning to `O=C(Nc1ccc(O)c(C(=O)NCC2CC2)c1)c1cc2c(-c3cnc4[nH]ccc4c3)cccc2s1` [CDD-3113, N-(3-((cyclopropylmethyl)carbamoyl)-4-hydroxyphenyl)-4-(1H-pyrrolo[2,3-b]pyridin-5-yl)benzo[b]thiophene-2-carboxamide], the half-life in data set [1] stood at 4.8 h; in data set [6], 3.15 h. Further, the Kd in data set [2] is 10.4 ± 1.4 nM; in data set [3] it was 10.9 ± 0.7 nM; in data set [5] it was 40.7 ± 5.5 nM.
Take `CN(C)C(=O)c1cc(NC(=O)c2cc3c(-c4cnc5[nH]ccc5c4)cccc3s2)ccc1C(F)(F)F` [CDD-2732, N-(3-(dimethylcarbamoyl)-4-(trifluoromethyl)phenyl)-4-(1H-pyrrolo[2,3-b]pyridin-5-yl)benzo[b]thiophene-2-carboxamide]: the Kd in data set [2] was found to be 14.3 ± 1.6 nM; in data set [3], 24.3 ± 1.9 nM; in data set [5], 67 ± 11 nM.
In the case of `CN(C)C(=O)c1cc(NC(=O)c2cc3c(-c4cnc5[nH]ccc5c4)cccc3s2)ccc1F` [CDD-2730, N-(3-(dimethylcarbamoyl)-4-fluorophenyl)-4-(1H-pyrrolo[2,3-b]pyridin-5-yl)benzo[b]thiophene-2-carboxamide], the values for the Kd in data set [2], in data set [3] and in data set [5] were 0.58 ± 0.08 nM, 1.86 ± 0.18 nM and 5.33 ± 0.52 nM, respectively. In addition, the solubility in data set [4] was determined as 0.3 µM (≈ 0.138 µg/mL).
Regarding `CN(C)CCNC(=O)c1cc(NC(=O)c2cc3c(-c4cnc5[nH]ccc5c4)cccc3s2)ccc1O` [CDD-3086, N-(3-((2-(dimethylamino)ethyl)carbamoyl)-4-hydroxyphenyl)-4-(1H-pyrrolo[2,3-b]pyridin-5-yl)benzo[b]thiophene-2-carboxamide], the half-life in data set [1] is 1.68 h; in data set [6] it was 1.5 h. Moreover, the Kd in data set [2] worked out at 0.67 ± 0.14 nM; in data set [3] it was 5.21 ± 0.46 nM; in data set [5], 5.98 ± 0.42 nM. The molecule further registered a solubility in data set [4] of 2 µM (≈ 0.999 µg/mL).
In the case of `CN(C)CCNC(=O)c1cc2c(-c3cnc4[nH]ccc4c3)cccc2s1` [CDD-3085, N-(2-(dimethylamino)ethyl)-4-(1H-pyrrolo[2,3-b]pyridin-5-yl)benzo[b]thiophene-2-carboxamide], the half-life in data set [1] was determined as 7.5 h; in data set [6], 1.17 h. The Kd in data set [2] worked out at 13.1 ± 1.2 nM; in data set [3] it was 30.3 ± 2.7 nM; in data set [5] it was 42.8 ± 8.3 nM. In data set [4], this molecule came in with a solubility of 170 µM (≈ 62 µg/mL).
As for `O=C(Nc1ccc(C(F)(F)F)cc1)c1ccn2ncc(-c3cnc4[nH]ccc4c3)c2c1` [CDD-2483, 3-(1H-pyrrolo[2,3-b]pyridin-5-yl)-N-(4-(trifluoromethyl)phenyl)pyrazolo[1,5-a]pyridine-5-carboxamide], the Ki in data set [3] came to 167 nM; in data set [5], 339 nM. Also, in data set [4], the solubility worked out at 0.6 µM (≈ 0.253 µg/mL).
With `O=C(Nc1ccc2c(c1)C(=O)NC2)c1cc2c(-c3cnc4[nH]ccc4c3)cccc2s1` [CDD-3115, N-(3-oxoisoindolin-5-yl)-4-(1H-pyrrolo[2,3-b]pyridin-5-yl)benzo[b]thiophene-2-carboxamide], the half-life is 14.8 h in data set [1] and 1.43 h in data set [6]. Further, the Kd was determined as 1.5 ± 0.2 nM in data set [2], 4.6 ± 0.7 nM in data set [3] and 6.3 ± 0.6 nM in data set [5]. Further, the solubility in data set [4] turned out to be 1.4 µM (≈ 0.594 µg/mL).
`CN(C)C(=O)c1cc(NC(=O)c2cc3c(-c4cnc5[nH]ccc5c4)cccc3s2)ccc1OC(F)(F)F` [CDD-2857, N-(3-(dimethylcarbamoyl)-4-(trifluoromethoxy)phenyl)-4-(1H-pyrrolo[2,3-b]pyridin-5-yl)benzo[b]thiophene-2-carboxamide]: the values for the half-life in data set [1] and in data set [6] were 2.88 h and 1.42 h, respectively. The Kd in data set [2] was 11.3 ± 3.4 nM; in data set [3], 15.7 ± 1.2 nM; in data set [5], 49.8 ± 9.7 nM.
`CN(C)C(=O)c1cc(NC(=O)c2cc3c(-c4cnc5[nH]ccc5c4)cncc3s2)ccc1O` [CDD-3111, N-(3-(dimethylcarbamoyl)-4-hydroxyphenyl)-4-(1H-pyrrolo[2,3-b]pyridin-5-yl)thieno[2,3-c]pyridine-2-carboxamide]: the half-life in data set [1] worked out at 2.22 h; in data set [6] it was 2.07 h. Moreover, the dissociation constant (Kd) in data set [2] was 0.07 ± 0.05 nM; in data set [3], 0.32 ± 0.04 nM; in data set [5] it was 0.73 ± 0.1 nM. The molecule further registered a solubility in data set [4] of 3.8 µM (≈ 1.74 µg/mL).
As for `COc1ccc(NC(=O)c2cc3c(-c4cnc5[nH]ccc5c4)cccc3s2)cc1` [CDD-2629, N-(4-methoxyphenyl)-4-(1H-pyrrolo[2,3-b]pyridin-5-yl)benzo[b]thiophene-2-carboxamide], the Kd was found to be 7.8 ± 1.4 nM in data set [2], 9.9 ± 1.3 nM in data set [3] and 15.4 ± 1.4 nM in data set [5].
As for `CCN(CC)Cc1cc(NC(=O)c2cc3c(-c4cnc5[nH]ccc5c4)cccc3s2)ccc1O` [CDD-3117, N-(3-((diethylamino)methyl)-4-hydroxyphenyl)-4-(1H-pyrrolo[2,3-b]pyridin-5-yl)benzo[b]thiophene-2-carboxamide], the half-life amounted to 0.517 h in data set [1] and 1.9 h in data set [6]. Also, the equilibrium dissociation constant (Kd) in data set [2] was determined as 0.9 ± 0.2 nM; in data set [3], 2.9 ± 0.4 nM; in data set [5] it was 2.1 ± 0.3 nM. In data set [4], the solubility amounted to 3.4 µM (≈ 1.6 µg/mL).
In the case of `N#Cc1cc(NC(=O)c2cc3c(-c4cnc5[nH]ccc5c4)cccc3s2)ccc1O` [CDD-3126, N-(3-cyano-4-hydroxyphenyl)-4-(1H-pyrrolo[2,3-b]pyridin-5-yl)benzo[b]thiophene-2-carboxamide], the half-life is 5.4 h in data set [1] and 2.4 h in data set [6]. Also, the Ki in data set [2] (Table 3b, read-out: Ki(app) JNK1) was 30 nM. Further, in data set [4], the solubility is more than 200 µM.
With `O=C(Nc1ccccc1)c1ccn2ncc(-c3cnc4[nH]ccc4c3)c2c1` [CDD-2485, N-phenyl-3-(1H-pyrrolo[2,3-b]pyridin-5-yl)pyrazolo[1,5-a]pyridine-5-carboxamide], the Kd in data set [2] is 0.12 ± 0.09 nM; in data set [3], 0.73 ± 0.02 nM; in data set [5] it was 0.95 ± 0.16 nM.
For `Cc1nnc2n1-c1ccc(Cl)cc1C(c1ccccc1)=NC2` [Alprazolam, reference compound], the “Predicted half-life, HLM t1/2” value in data set [1] was 12.63 h. Moreover, the “Predicted half-life, MLM t1/2” value in data set [6] is 3.975 h.
